Where a name gives a salt, the structure may show the parent alone.
Test system: inflammation induced by tetradecanoyl phorbol acetate (TPA)
Assay: TPA Inflammation Inhibition Test
Type: in vivo, mice
Details: mouse ear edema, topical, 100 mg/ear, four hours
Experimental: The TPA model mimics many of the inflammatory change which occur in human skin diseases such as psoriasis, since elevated levels of inflammatory arachidonic acid metabolites are found and an influx of polymorphonuclear leukocytes is observed. The test procedure used to evaluate the compounds of Formula (I) is as follows: the test compound (100 mg/ear) is applied to both ears of mice in an appropriate vehicle, such as acetone, and then the inflammatory stimulus (TPA) is applied to the right ear. Four hours later, the edema is measured by removing standard size discs from the ears using a biopsy punch. A control group of animals receives TPA in vehicle applied to the right ear, and vehicle alone to the left ear.

SMILES	% Inhibition of Control Swelling
COc1ccc(CNCCC(=O)c2ccc(F)cc2)c2ccccc12 [Example 7, 1-(4-Fluorophenyl)-3-[(4-methoxy-1-naphthaIenyl)-methylamino]-1-propanone Hydrochloride]	21%
CC(C)c1ccc2c(c1)CCC1C(C)(CNCCC(=O)c3ccccc3)CCCC21C (stereo not shown) [Example 21, 1-Phenyl-3-([4a-dimethyl-7-(1-methylethyl)-1,2,3,4,4a,9,10,10aoctahydro-1-phenanthren-1-yl]-methylamino)-1-propanone 4-Methylbenzenesulfonate]	31%
CCCCCCC(C)OCCCC(=O)c1ccc(F)cc1 (stereo not drawn) [Example 37, 1-(4-Fluorophenyl)-4-(d-1-methylheptyloxy)-1-butanone]	20%
CC(C)c1ccc2c(c1)CCC1C(C)(CNCCC(=O)c3ccc(F)cc3)CCCC21C.Cl (stereo not shown) [Example 52, 3-([1,4a-Dimethyl-1,2,3,4,4a,9,10,10a-octahydro-7-(1-methylethyl)-1-phenanthrenyl]methylamino)-1-(4-fluorophenyl)-1-propanone Hydrochloride]	40%

Reference: patent US4948813A, “Benzylketone phospholipase A2 inhibitors” (E. I. Du Pont de Nemours and Company, priority 1989, dated 1990)
